Reference: the pKa sets of Baltruschat and Czodrowski (2020)

settings: acidic group

Compound | pKa
CCOC(=O)N1CCc2noc(O)c2CC1 | 4.7
CC[C@]1(c2ccccc2)NC(=O)NC1=O | 8.5
C[C@@]12CC(=O)N[C@]1(CCC(=O)O)C(=O)NC2=O | 4.4
Cn1cnc2nc([O-])[nH]c(=S)c21 | 12.1
CO[C@H]1C[C@@H]1C(=O)O | 4.47
Cc1cc(C)c(O)c([N+](=O)[O-])c1 | 7.98
O=C1O[C@@H]([C@@H](O)CO)C(O)=C1O | 4.16
O=C1CC(=O)NC(=S)[N-]1 | 10.7
COc1cc(OC)c2c(c1Cl)O[C@]1(C(=O)CC(=O)C[C@@H]1C)C2=O | 4.49
O=C(O)c1ccc[nH+]c1[O-] | 5.28
O=C(O)[C@H](P)CC[C@H](P)C(=O)O | 3.54
CNC(=O)/C=C\C(=O)O | 3.98
C[C@@H]1CC[C@H](C)[C@H]1C(=O)O | 4.69
CC(O)CC(=O)O (stereo unspecified) | 4.5
COCC1=C(C(=O)O)C2C=CC1C2 (stereo unspecified) | 4.59
CSC(C)C(=O)O (stereo unspecified) | 3.76
C/C=C\C=C/C(=O)O | 4.51
C/C(=N\O)c1ccccc1 | 11.3
Cc1ccc(O)c(C(=O)O)c1 | 3.01
O=C(O)/C=C/c1ccoc1 | 4.31
Cc1cc(O)c(C(C)C)cc1Nc1ccc([O-])cc1 | 10.8
CCCC[NH2+]CCC(=O)O | 3.57
C[C@@H]1CCC[C@H](C(=O)O)C1 | 4.88
NS(=O)(=O)c1ccc(Cl)c(Cl)c1 | 8.94
O=C(O)c1ccccc1I | 2.93
O=C(O)c1ccc(Cl)cc1Cl | 2.74
CC(=O)/C=C(/C)O | 7.64

Compound | pKa
C=CCC1(C2C=CCCC2)C(=O)NC(=S)NC1=O (stereo unspecified) | 7.25
CCC1(CC)SC(=O)NC1=O | 6.42
CCCc1c(C)[nH][n+](C)c1[O-] | 10.5
Brc1cccc(-c2nnn[nH]2)c1 | 3.82
Cc1ccc(NC(=S)c2cccc(Br)c2)cc1 | 10.9
Oc1cc(-c2ccccc2)no1 | 4.01
O=C1NS(=O)(=O)c2ccccc21 | 1.76
CCCCCCCCCC(=O)O | 4.89
C/C(O)=N\[N+](C)(C)C | 5.42
Nc1n[nH]c(N)c1/N=N/c1ccccc1O | 8.22
C[Si](C)(C)CCCCC(=O)O | 4.96
COC(=O)CC(=O)c1ccncc1 | 8.24
[O-]c1ccccc1/C=N/O | 12.1
CC(C#N)C(=O)O (stereo unspecified) | 2.37
COc1cc(OC)nc(NS(=O)(=O)c2ccc(O)cc2)n1 | 7.29
Cc1ccc(O)c(=O)cc1 | 7.32
C[n+]1cccc(C(=O)Cc2ccccc2)c1 | 10.3
O=C1/C(=N\O)C=C(S(=O)(=O)[O-])c2cn[nH]c21 | 6.35
O=C([O-])C[NH+](CCNS(=O)(=O)c1ccccc1)CC(=O)[O-] | 7.82
COC(=O)C1c2ccccc2-c2ccccc21 | 11.5
CN(C)c1ccc(O)cc1 | 10.2
O=CC(c1ccccc1)c1ccccc1 | 9.39
O=C(O)CCCc1c[nH]c2ccccc12 | 4.82
O=C(O)[C@@H](O)Cc1c[nH]c[nH+]1 | 2.99
O=CC1c2ccccc2C(=O)c2ccccc21 | 6
COc1ccc(NC(=S)c2ccc(OC)cc2)cc1 | 11.8
NC(=O)Nc1ccc([N+](=O)[O-])cc1 | 14

Compound | pKa
Sc1nnco1 | 3.85
Oc1ccc2cc(Br)ccc2c1 | 9.2
O=C(Nc1nnc(-c2ccccc2)s1)c1ccccc1 | 6.8
C[n+]1ccccc1C(C)(O)O | 10.6
O[n+]1ccccc1 | 0.77
C[N+](C)(C)c1cc([N+](=O)[O-])ccc1O | 4.35
CC(C)(O)C(=O)O | 4.04
O=C(O)CCCc1c[nH]c[nH+]1 | 4.26
C=C(SC1CCCCC1)C(=O)O | 3.4
Nc1ccc(O)cc1O | 9.3
CC([NH3+])C(=O)O (stereo unspecified) | 2.36
O=[N+]([O-])c1ccccc1[Se]O | 10.5
CC/C([N+](=O)[O-])=[N+](/[O-])O | 4.1
CCc1n[nH]c(CC)n1 | 10.2
Cc1cccc([Se](=O)O)c1 | 4.8
N#CC(C#N)=NNc1ccc(/N=N/c2ccccc2)cc1 | 7.33
O=C(O)[C@@H]1CC[C@@H](C(=O)O)[Se][Se]1 | 2.85
OCc1nc2ccccc2[nH]1 | 12.1
[NH3+]CCc1cccc(O)c1 | 9.27
C=C(F)C(=O)O | 2.55
Cc1cc(C(=O)O)ccc1Cl | 4.07
NC1=NS(=O)(=O)[N-]c2nc[nH]c21 | 12.2
Oc1onc2c1CC[NH+](Cc1ccccc1)CC2 | 3.3
O=P(O)(O)C([NH2+]Cc1cc[nH+]cc1)c1ccccc1O (stereo unspecified) | 2.28
C[N+](C)(C)CCc1cccc(O)c1 | 9.43

same assay, conditions: basic group

Compound | pKa
O=Cc1cccc(C=O)n1 | 1.92
CCN(CC)CCCNC(=O)/C=N/[O-] | 10.3
N[C@H](C(=O)[O-])[C@H](O)C(=O)[O-] | 8.75
CCCCN(C)C | 10
C#CC(CC)(CC)N(CC)C(C)C | 8.2
Nc1cc[nH]n1 | 4.11
NCCCBr | 8.93
O=P([O-])([O-])c1cn2c(n1)[C@@H](O)[C@H](O)[C@@H](O)[C@@H]2CO | 7.69
[O-]c1ccnc([S-])n1 | 12.7
CCCCCCCCCCCCCCCCCCN(CC(C)O)CC(C)O (stereo unspecified) | 9.4
CCOc1ccc2nccc([C@@H](O)[C@@H]3C[C@H]4CCN3C[C@@H]4CC)c2c1 | 8.5
COc1ccc(C=O)cc1C(=O)N[C@@H]1C[C@H]2CC[C@@H](C1)N2Cc1ccccc1 | 8.74
Cc1ccccc1C(=NCCCC[NH+](C)C)c1ccccc1C | 5.18
c1cnc2c(c1)ccc1ccc[nH+]c12 | 2.04
COc1ccc2c(c1)CCN2 | 6.1
CNc1nnc(-c2ccccc2)s1 | 2.8
NC(=O)C(c1ccccc1)c1ccccn1 (stereo unspecified) | 3.8
CN(C)c1ccc(/C=N/c2ncc3[nH+]c[nH]c3n2)cc1 | 3.82
CCN(CC)CC(C)Nc1c2ccc(Cl)cc2nc2ccc(OC)cc12 (stereo unspecified) | 9.65
C[C@@H]1CCC[C@H](C)N1CC(C)(C)O | 10.7
CCCCCCN(CCO)CC(C)O (stereo unspecified) | 9
CCN(CC)CCCCCCCC(C)Nc1c2ccc(Cl)cc2nc2ccc(OC)cc12 (stereo unspecified) | 10.4
Cc1ccc2c(c1)c1c3c(nccn32)CCC1 | 6.24

Compound | pKa
C=C(C)C(=O)OCCN(C(C)C)C(C)C | 8.77
CC[C@H]1CN2CC[C@@H]1C[C@H]2[C@H](O)c1ccnc2ccc(OC)cc12 | 8.67
NCc1nnn[n-]1 | 8.54
CN(C)CCNC(=O)/C=N/[O-] | 9.43
c1ccc2nc3ccc4ccccc4c3cc2c1 | 4.39
CC(C)CSC(=N)c1ccccc1 | 8.22
Brc1ccc(C2NCCS2)cc1 (stereo unspecified) | 5.05
N#CC1C(=O)Cc2ccccc21 (stereo unspecified) | 4.8
Cc1ccc(Cl)cc1/C(=N/CCC[NH+](C)C)c1ccccc1 | 3.87
c1ccc(Cc2cc(-c3ccccc3)nnc2NCCN2CCOCC2)cc1 | 6.95
C/C(CCN(C)C)=N\[O-] | 11.2
O=C([O-])[C@@H](O)Cc1c[nH]cn1 | 7.32
NNCCc1ccccc1 | 7.25
OC(c1ccccc1)(c1ccccc1)c1ccccn1 | 3.9
Nc1n[nH]c(N)c1/N=N/c1ccccc1O | 3.51
CCCc1ccc(C)nn1 | 4.25
Nc1nnc(-c2ccccc2)s1 | 2.9
C[NH+]1CCC(NN)CC1 | 5.7
O=C([O-])C#CCN1CCOCC1 | 5.57
Cc1nc2c(n1C)C(=O)c1ncnc([O-])c1C2=O | 6.15
O=C(/C=C/c1c[nH]cn1)OCCCl | 4.8
COc1cc2c(cc1OC)NCC2 | 7.3
C[NH+](C)CCCNc1ccnc2ccc([N+](=O)[O-])cc12 | 6.99

Compound | pKa
NCC1CCCCC1 | 10.5
CCOc1cccc(C(=O)N[C@@H]2C[C@H]3CC[C@@H](C2)N3Cc2ccccc2)c1OC | 8.78
Cc1cccc(CN)c1 | 9.37
CCOCCN(C)c1ccccc1 | 4.8
Cc1ccccc1/N=C/N(C)C | 8.27
CN(C)CCCCCCCCCCNC(=O)/C=N/[O-] | 10.6
O=CC(c1ccccc1)c1ccccc1 | 9.42
CN(C)CC(CSCc1ccccc1)SCc1ccccc1 (stereo unspecified) | 7.3
NC(=O)CCCCc1cccnc1 | 5.6
COc1c(N)cccc1C(=O)N[C@@H]1C[C@H]2CC[C@@H](C1)N2Cc1ccccc1 | 8.86
Cc1cnoc1C | 0
C1CCN(CCCN2CCCC2)C1 | 10
Cc1ccc(S(=O)(=O)N2CCNCC2)cc1 | 7.41
CC(C)NCCCCCC[NH2+]C(C)C | 10.9
O=[N+]([O-])c1ccc(-n2nnnc2/C=C/c2ccc(Cl)cc2)cc1 | -3.05
Nc1cccc2ncccc12 | 5.46
[S-]CCNCc1ccccc1 | 10.3
CN(C)c1cccc(C#N)c1 | 2.97
Cn1c(-c2ccccn2)[nH+]c2ccccc21 | -1.27
CNc1ccccn1 | 7.13
CC(C)N[C@H](c1ccccc1)[C@H](O)c1ccccc1 | 11.8
Nc1ccc(O)cc1O | 5.7
Cc1cnc2c([S-])ncnc2n1 | 7.02

Compound | pKa
c1ccc2c(c1)CNCCC[NH2+]Cc1ccccc1OCCO2 | 7.82
CCCNCCC | 11
Nc1cccc(I)c1 | 3.59
O=C([O-])C1CCCCN1 (stereo unspecified) | 10.6
c1ccc(-c2cccc(-c3cccc[nH+]3)n2)nc1 | 3.28
CCCc1nc2cc(OCC)ccc2[nH]1 | 6.12
CCCCCCCCNCc1ccc(C)cc1 | 9.47
Cc1ccc2ccccc2n1 | 5.69
CC1(C)CC(NCCO)CC(C)(C)N1 | 10.5
CCCNCCN | 10.3
N#CC(C#N)=NNc1ccc(/N=N/c2ccccc2)cc1 | -0.87
CC1(C)CC(=O)C(C)(C)N1 | 7.1
OCc1nc2ccccc2[nH]1 | 4.82
N=C(N)N(c1ccccc1)c1ccccc1 | 10.4
CCOC(=O)CC(c1ccccc1)N(C)C (stereo unspecified) | 7.66
COc1ccc(N)cc1 | 5.35
CCCN(C)C | 9.62
CN(C)c1ncnc2c1cnn2C | 4.06
N[C@H]1C[C@@H]1[NH3+] | 5.9
CN(C)c1ccc(C2=CN3CCC2CC3)cc1 | 9.82
Nc1ccc(F)cc1 | 4.64
NCCCCC#CC#CCCC(=O)[O-] | 10.5
COc1c(C)cccc1C(=O)N[C@@H]1C[C@H]2CC[C@@H](C1)N2Cc1ccccc1 | 8.92
